Source: article PMC8991199, “Promiscuity mapping of the S100 protein family using a high-throughput holdup assay” (Scientific Reports, 2022)
Entries after “also recorded” stand apart in the source; their conditions may differ.

Assays:
Format in all cases: binding
S100A5 = target: T1, S100A5 (Homo sapiens, UniProt P33763); assay: direct fluorescence polarization (FP), S100A5; details: for binding to S100A5 in the absence of Ca2+: Fig. 3C middle panels, direct FP in the presence of EDTA; for Kd: direct FP, S100A5, 50 nM labeled foldamer, 20 mM HEPES pH 7.5, 150 mM NaCl, 1 mM CaCl2, 0.5 mM TCEP, 0.01% Tween20, quadratic fit, mean ± SEM, three technical repeats, threshold 1 mM
T1 sequence (P33763 1-92): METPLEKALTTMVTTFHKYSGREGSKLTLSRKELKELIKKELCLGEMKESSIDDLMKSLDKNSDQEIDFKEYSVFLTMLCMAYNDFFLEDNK
Description: (§1) HTP (and also low-throughput) measurements generally need to be validated by an orthogonal approach to eliminate experimental artifacts. […] This way, we chose WL, IF, WW, YF, IL, VL, TW, RF, RR, TI, TM, and after resynthesizing with a fluorescent label at the C-terminus (Figs. S15–S26, Table S1), the S100ome was tested against the labeled foldamers by direct fluorescence polarization (FP) (Fig. 3A). In this assay, the association of the fluorescently labeled foldamer and the S100 protein of interest is monitored, through the change in polarization of the emitted light by the fluorophore upon the binding event. In direct FP, the presence of the fluorophore might change the binding affinity of some foldamers. […] Nevertheless, we assumed that the fluorophore would affect all foldamers that target the same binding site to the same degree, because the foldamer scaffold is rigid. Defining the threshold of detection at the dissociation constant of 1 mM, we identified 87 interactions between the selected foldamer fragments and the S100ome out of 220 possible interactions (Table 1, Fig. S4-14).
To ensure that foldamer fragments bind to the hydrophobic binding groove of S100 proteins, which opens upon binding of calcium ions, we performed FP experiments on a selected S100 protein, S100A5, in the presence of EDTA and TRTK12, an S100-binding peptide of 12 amino acids. […] Based on the similarity and redundancy among the S100 family, it can be assumed that all S100 proteins bind the members of the H14 foldamer library through their hydrophobic binding pocket in a Ca^2+-dependent manner.
(§2) Briefly, S100 proteins were cloned into a modified pET15b vector with a TEV protease cleavable N-terminal His6-tag and expressed in Escherichia coli BL21 (DE3) cells, followed by Ni^2+-affinity chromatography. For HU assay, S100 proteins were further purified by either hydrophobic interaction chromatography or ion exchange chromatography without the cleavage of the N-terminal His6-tag applying standard conditions. For direct FP measurements, the N-terminal His6-tag was cleaved, and the S100 proteins were purified by hydrophobic interaction chromatography, ion exchange chromatography or size exclusion chromatography. The quality of the recombinant proteins was checked by SDS-PAGE analysis in all cases. The concentration of the recombinant S100 proteins was determined by UV spectrophotometry using the absorbance of Tyr and Trp residues.
(§3) In direct fluorescence polarization assays, S100 proteins were diluted in a buffer containing 50 nM labeled foldamer, 20 mM HEPES pH 7.5, 150 mM NaCl, 1 mM CaCl2, 0.5 mM TCEP and 0.01% Tween20. The dilution series (50 µl) were divided into three technical repeats and transferred (15 µl) to a 384-well microplate. In competitive fluorescence polarization assays, the buffer applied in direct measurements was supplemented with the S100 protein of interest to reach a saturation of 60–80%. This mixture was titrated with the competitor (i.e. the unlabeled peptide). Fluorescence polarization was measured in 8 different S100 concentrations (one of which contained no S100 protein) on a Synergy H4 plate reader using 485 ± 20 nm and 528 ± 20 nm band-pass filters for excitation and emission, respectively. The Kd values were obtained by fitting the data from the FP measurements with the python-based ProFit software using quadratic and competitive binding equation for direct and competitive FP, respectively. The detection threshold was based on two parameters. First, we rejected all fitted dissociation constants above 1 mM.

S100A7 = target: T2, S100A7 (Homo sapiens, UniProt P31151); assay: direct fluorescence polarization (FP), S100A7; details: S100A7, 50 nM labeled foldamer, 20 mM HEPES pH 7.5, 150 mM NaCl, 1 mM CaCl2, 0.5 mM TCEP, 0.01% Tween20, quadratic fit, mean ± SEM, three technical repeats, threshold 1 mM
T2 sequence (P31151 1-101): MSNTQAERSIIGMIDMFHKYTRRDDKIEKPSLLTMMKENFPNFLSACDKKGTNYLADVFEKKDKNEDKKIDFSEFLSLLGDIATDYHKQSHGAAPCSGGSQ
Description: as §1, §2, §3

S100A9 = target: T3, S100A9 (Homo sapiens, UniProt P06702); assay: direct fluorescence polarization (FP), S100A9; details: S100A9, 50 nM labeled foldamer, 20 mM HEPES pH 7.5, 150 mM NaCl, 1 mM CaCl2, 0.5 mM TCEP, 0.01% Tween20, quadratic fit, mean ± SEM, three technical repeats, threshold 1 mM
T3 sequence (P06702 1-114): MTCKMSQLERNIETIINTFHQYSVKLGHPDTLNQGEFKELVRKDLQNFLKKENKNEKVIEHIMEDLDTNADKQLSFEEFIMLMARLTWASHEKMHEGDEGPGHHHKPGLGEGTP
Description: as §1, §2, §3

S100A12 = target: T4, S100A12 (Homo sapiens, UniProt P80511); assay: direct fluorescence polarization (FP), S100A12; details: S100A12, 50 nM labeled foldamer, 20 mM HEPES pH 7.5, 150 mM NaCl, 1 mM CaCl2, 0.5 mM TCEP, 0.01% Tween20, quadratic fit, mean ± SEM, three technical repeats, threshold 1 mM
T4 sequence (P80511 1-92): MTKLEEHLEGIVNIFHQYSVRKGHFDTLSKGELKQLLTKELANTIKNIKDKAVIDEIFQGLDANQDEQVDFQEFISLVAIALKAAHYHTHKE
Description: as §1, §2, §3

S100A13 = target: T5, S100A13 (Homo sapiens, UniProt Q99584); assay: direct fluorescence polarization (FP), S100A13; details: for Kd: S100A13, 50 nM labeled foldamer, 20 mM HEPES pH 7.5, 150 mM NaCl, 1 mM CaCl2, 0.5 mM TCEP, 0.01% Tween20, quadratic fit, mean ± SEM, three technical repeats, threshold 1 mM
T5 sequence (Q99584 1-98): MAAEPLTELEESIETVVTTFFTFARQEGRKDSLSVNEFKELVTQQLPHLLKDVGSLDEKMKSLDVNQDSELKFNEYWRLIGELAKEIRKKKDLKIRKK
Description: as §1, §2, §3

S100A6 = S100A6 (Homo sapiens, UniProt P06703); assay: direct fluorescence polarization (FP), S100A6
From the text: HTP (and also low-throughput) measurements generally need to be validated by an orthogonal approach to eliminate experimental artifacts. […] In this assay, the association of the fluorescently labeled foldamer and the S100 protein of interest is monitored, through the change in polarization of the emitted light by the fluorophore upon the binding event. In direct FP, the presence of the fluorophore might change the binding affinity of some foldamers. […] Nevertheless, we assumed that the fluorophore would affect all foldamers that target the same binding site to the same degree, because the foldamer scaffold is rigid.
as §2, §3

Row | Compound | binding to S100A5 in the absence of Ca2+ (S100A5) | Kd (S100A5) [mM] | Kd (S100A7) [mM] | Kd (S100A9) [mM] | Kd (S100A12) [mM] | Kd (S100A13) [mM] | Kd (S100A6) [mM] | increase of the polarization upon adding S100A13 (S100A13; Fig. 3A right panel)
1 | CC[C@H](C)[C@@H](CC(=O)N[C@H]1CCCC[C@@H]1C(=O)N[C@H]1CCCC[C@@H]1C(=O)N[C@H](CC(=O)N[C@H]1CCCC[C@@H]1C(=O)NCC(=O)N[C@@H](CCCCNC(=O)c1ccc2c(c1)C1(OC2=O)c2ccc(O)cc2Oc2cc(O)ccc21)C(N)=O)Cc1ccccc1)NC(=O)[C@H]1CCCC[C@@H]1N [fIF] | loss of binding event; also recorded: unable to interact | 0.027 ± 0.00053 | > 1 | > 1 | 0.59 ± 0.039 | > 1 |  | 
2 | CC[C@H](C)[C@@H](CC(=O)N[C@H]1CCCC[C@@H]1C(=O)N[C@H]1CCCC[C@@H]1C(=O)N[C@H](CC(=O)N[C@H]1CCCC[C@@H]1C(=O)NCC(=O)N[C@@H](CCCCNC(=O)c1ccc2c(c1)C1(OC2=O)c2ccc(O)cc2Oc2cc(O)ccc21)C(N)=O)CC(C)C)NC(=O)[C@H]1CCCC[C@@H]1N [fIL] |  | 0.075 ± 0.0036 | > 1 | > 1 | > 1 | > 1 |  | 
3 | N=C(N)NCCC[C@@H](CC(=O)N[C@H]1CCCC[C@@H]1C(=O)N[C@H]1CCCC[C@@H]1C(=O)N[C@H](CC(=O)N[C@H]1CCCC[C@@H]1C(=O)NCC(=O)N[C@@H](CCCCNC(=O)c1ccc2c(c1)C1(OC2=O)c2ccc(O)cc2Oc2cc(O)ccc21)C(N)=O)Cc1ccccc1)NC(=O)[C@H]1CCCC[C@@H]1N [fRF] |  | 0.046 ± 0.0012 | > 1 | > 1 | > 1 | > 1 |  | 
4 | N=C(N)NCCC[C@@H](CC(=O)N[C@H]1CCCC[C@@H]1C(=O)NCC(=O)N[C@@H](CCCCNC(=O)c1ccc2c(c1)C1(OC2=O)c2ccc(O)cc2Oc2cc(O)ccc21)C(N)=O)NC(=O)[C@H]1CCCC[C@@H]1NC(=O)[C@H]1CCCC[C@@H]1NC(=O)C[C@H](CCCNC(=N)N)NC(=O)[C@H]1CCCC[C@@H]1N [fRR] |  | 0.045 ± 0.00081 | > 1 | > 1 | > 1 | > 1 | > 1 | 
5 | CC[C@H](C)[C@@H](CC(=O)N[C@H]1CCCC[C@@H]1C(=O)NCC(=O)N[C@@H](CCCCNC(=O)c1ccc2c(c1)C1(OC2=O)c2ccc(O)cc2Oc2cc(O)ccc21)C(N)=O)NC(=O)[C@H]1CCCC[C@@H]1NC(=O)[C@H]1CCCC[C@@H]1NC(=O)C[C@@H](NC(=O)[C@H]1CCCC[C@@H]1N)[C@@H](C)O [fTI] |  | 0.27 ± 0.014 | > 1 | > 1 | > 1 | > 1 | 0.699 ± 0.063 | 
6 | CSCC[C@@H](CC(=O)N[C@H]1CCCC[C@@H]1C(=O)NCC(=O)N[C@@H](CCCCNC(=O)c1ccc2c(c1)C1(OC2=O)c2ccc(O)cc2Oc2cc(O)ccc21)C(N)=O)NC(=O)[C@H]1CCCC[C@@H]1NC(=O)[C@H]1CCCC[C@@H]1NC(=O)C[C@@H](NC(=O)[C@H]1CCCC[C@@H]1N)[C@@H](C)O [fTM] |  | 0.204 ± 0.0092 | > 1 | > 1 | > 1 | > 1 | 0.517 ± 0.057 | 
7 | C[C@@H](O)[C@@H](CC(=O)N[C@H]1CCCC[C@@H]1C(=O)N[C@H]1CCCC[C@@H]1C(=O)N[C@H](CC(=O)N[C@H]1CCCC[C@@H]1C(=O)NCC(=O)N[C@@H](CCCCNC(=O)c1ccc2c(c1)C1(OC2=O)c2ccc(O)cc2Oc2cc(O)ccc21)C(N)=O)Cc1c[nH]c2ccccc12)NC(=O)[C@H]1CCCC[C@@H]1N [fTW] |  | 0.062 ± 0.0014 | > 1 | > 1 | > 1 | > 1 |  | 
8 | CC(C)C[C@@H](CC(=O)N[C@H]1CCCC[C@@H]1C(=O)NCC(=O)N[C@@H](CCCCNC(=O)c1ccc2c(c1)C1(OC2=O)c2ccc(O)cc2Oc2cc(O)ccc21)C(N)=O)NC(=O)[C@H]1CCCC[C@@H]1NC(=O)[C@H]1CCCC[C@@H]1NC(=O)C[C@@H](NC(=O)[C@H]1CCCC[C@@H]1N)C(C)C [fVL] |  | 0.11 ± 0.0054 | > 1 | > 1 | > 1 | > 1 |  | 
9 | CC(C)C[C@@H](CC(=O)N[C@H]1CCCC[C@@H]1C(=O)NCC(=O)N[C@@H](CCCCNC(=O)c1ccc2c(c1)C1(OC2=O)c2ccc(O)cc2Oc2cc(O)ccc21)C(N)=O)NC(=O)[C@H]1CCCC[C@@H]1NC(=O)[C@H]1CCCC[C@@H]1NC(=O)C[C@H](Cc1c[nH]c2ccccc12)NC(=O)[C@H]1CCCC[C@@H]1N [fWL] | loss of binding event; also recorded: unable to interact | 0.014 ± 0.00055 | 0.023 ± 0.0015 | > 1 | 0.254 ± 0.113 | > 1 | 0.03 ± 0.0017 | 
10 | NC(=O)[C@H](CCCCNC(=O)c1ccc2c(c1)C1(OC2=O)c2ccc(O)cc2Oc2cc(O)ccc21)NC(=O)CNC(=O)[C@H]1CCCC[C@@H]1NC(=O)C[C@H](Cc1c[nH]c2ccccc12)NC(=O)[C@H]1CCCC[C@@H]1NC(=O)[C@H]1CCCC[C@@H]1NC(=O)C[C@H](Cc1c[nH]c2ccccc12)NC(=O)[C@H]1CCCC[C@@H]1N [fWW] |  | 0.077 ± 0.0028 | > 1 | > 1 | > 1 | > 1 | 0.1 ± 0.0032 | 
11 | NC(=O)[C@H](CCCCNC(=O)c1ccc2c(c1)C1(OC2=O)c2ccc(O)cc2Oc2cc(O)ccc21)NC(=O)CNC(=O)[C@H]1CCCC[C@@H]1NC(=O)C[C@H](Cc1ccccc1)NC(=O)[C@H]1CCCC[C@@H]1NC(=O)[C@H]1CCCC[C@@H]1NC(=O)C[C@H](Cc1ccc(O)cc1)NC(=O)[C@H]1CCCC[C@@H]1N [fYF] |  | 0.032 ± 0.001 | > 1 | > 1 | > 1 | > 1 |  | only a minor linear increase of the polarization
